This data set deals with IRF4. The following applies: ASO.

“And” between values parts separate entries of the source, which are not always exact repeats. Identical values can stand only once. After the bases stand the sugars from the 5' end (letter, count) and the backbone: PS all phosphorothioate, else s phosphorothioate and o phosphodiester by linkage. Methylation of C is not given here. e = 2'-O-(2-methoxyethyl) (MOE); k = constrained ethyl (cEt); d = 2'-deoxy (DNA)

With CGCTCAACCAGTTCCT (sugars k3 d10 k3, PS), where the note is “SK-MEL-28, 4 µM”, the target mRNA inhibition was 28%.
CGCTCAGGACTCAGGG (sugars k3 d10 k3, PS): the target mRNA inhibition (SK-MEL-28, 4 µM) amounted to 55%.
On to CGCTTGTGGATATACA (sugars k3 d10 k3, PS), for which the target mRNA inhibition (MM.1R, 1 µM) is 0%.
With CGGAACTTTCCTTTAA (sugars k3 d10 k3, PS), the target mRNA inhibition (SK-MEL-28, 4 µM) came to 37%.
Take CGGAAGAAGGCACCTT (sugars k3 d10 k3, PS): for the setting “SK-MEL-28, 4 µM”, the target mRNA inhibition is -12%.
CGGACGCACGGAGAGG (sugars k3 d10 k3, PS): the target mRNA inhibition (SK-MEL-28, 4 µM) was 28%.
As to CGGTTAGCTCATCCCG (sugars k3 d10 k3, PS), where the note is “MM.1R, 1 µM”, the target mRNA inhibition turned out to be 5%.
Take CGTAGTCACGCAATGG (sugars k3 d10 k3, PS): for the setting “MM.1R, 1 µM”, the target mRNA inhibition is 15%.
CGTGGAAACGAGAACG (sugars k3 d10 k3, PS): where the note is “SK-MEL-28, 4 µM”, the target mRNA inhibition came to 29%.
Turning to “CGTGTGCTTGCCAAGC (sugars k2 d9 e3 k2, PS)”, the target mRNA inhibition (MM.1R, 1 µM) is 60% and 66%.
Consider “CGTGTGCTTGCCAAGC (sugars kddddddddddkekek, PS)”, for which the target mRNA inhibition (MM.1R, 1 µM) is 30% and 32%.
With “CGTGTGCTTGCCAAGC (sugars kkdddddddddekeke, PS)”, the target mRNA inhibition (MM.1R, 1 µM) is 47% and 36%.
Regarding CTAAAGTCCCATCGAA (sugars k3 d10 k3, PS), the target mRNA inhibition (MM.1R, 1 µM) is -2%.
For CTAAATTCTAGTTTGC (sugars k3 d10 k3, PS), where the note is “SK-MEL-28, 4 µM”, the target mRNA inhibition amounted to 21%.
On to CTAAGGAGACAGTAAC (sugars k3 d10 k3, PS), for which the target mRNA inhibition (SK-MEL-28, 4 µM) is 29%.
For the sequence CTAATCCACAATCAGC (sugars k3 d10 k3, PS), the target mRNA inhibition (SK-MEL-28, 4 µM) stood at 45%.
Consider CTAATCTACAACAAAT (sugars k3 d10 k3, PS), for which the target mRNA inhibition (SK-MEL-28, 4 µM) is 23%.
In the case of CTACAAAATGCCTCCA (sugars k3 d10 k3, PS), the target mRNA inhibition (SK-MEL-28, 4 µM) was 42%.
CTACAAAGAGCACTGC (sugars k3 d10 k3, PS): where the note is “SK-MEL-28, 4 µM”, the target mRNA inhibition was 53%.
On the same count and under the same terms, the same measure for CTACACCTACACAGGC (sugars k3 d10 k3, PS): 16%.
For CTACAGATCTCAGCAA (sugars k3 d10 k3, PS), the target mRNA inhibition (SK-MEL-28, 4 µM) is 18%.
On the same count and under the same terms, the same measure for CTACATCTACTCCAGA (sugars k3 d10 k3, PS): 22%; for CTACATTTCTTATGCA (sugars k3 d10 k3, PS): 39%; for CTAGAGGTGCCTTCTT (sugars k3 d10 k3, PS): 26%.
CTAGATAGCATTCTTA (sugars k3 d10 k3, PS): the target mRNA inhibition (SK-MEL-28, 4 µM) was found to be 39%.
As for “CTATAGTGTTCCAGGA (sugars kdddddddddkekeke, PS)”, the target mRNA inhibition (MM.1R, 1 µM) worked out at 12%.
Regarding “CTATAGTGTTCCAGGA (sugars kkdddddddddekeke, PS)”, for the setting “MM.1R, 1 µM”, the target mRNA inhibition was 48%.
With “CTATAGTGTTCCAGGA (sugars kkdddddddddkdkdk, PS)”, the target mRNA inhibition amounted to 19% (MM.1R, 0.074 µM); 23% (MM.1R, 0.222 µM); 42% (MM.1R, 0.666 µM); 49% (MM.1R, 1 µM); 68% (MM.1R, 2 µM).
On to CTATGCTAGAGAACAT (sugars k3 d10 k3, PS), for which the target mRNA inhibition (SK-MEL-28, 4 µM) came to 23%.
Take CTCAGCAAGTGTCTTC (sugars k3 d10 k3, PS): where the note is “SK-MEL-28, 4 µM”, the target mRNA inhibition turned out to be 45%.
Turning to CTCATAGGTGTACACG (sugars k3 d10 k3, PS), the target mRNA inhibition (SK-MEL-28, 4 µM) is 59%.
For the sequence CTCGAGGCCAACGACT (sugars k3 d10 k3, PS), the target mRNA inhibition (SK-MEL-28, 4 µM) amounted to 1%.
On the same count and under the same terms, the value for CTCTACTGGAGTCAAG (sugars k3 d10 k3, PS) was 25%; that for CTCTATAGTGTTCCAG (sugars k3 d10 k3, PS) was 66%.
On to “CTCTATAGTGTTCCAG (sugars kdddddddddkekeke, PS)”, for which, where the note is “MM.1R, 1 µM”, the target mRNA inhibition turned out to be 11%.
With CTCTGACAAGAACTGC (sugars k3 d10 k3, PS), the target mRNA inhibition (SK-MEL-28, 4 µM) was 30%.
CTCTTTAAAATATCGC (sugars k3 d10 k3, PS): the target mRNA inhibition (SK-MEL-28, 4 µM) is 56%.
Turning to CTGAGATAGGAAGCAC (sugars k3 d10 k3, PS), under “SK-MEL-28, 4 µM”, the target mRNA inhibition amounted to 26%.
The same measure, in the same setting: the value for CTGCAAATCCCTCTTG (sugars k3 d10 k3, PS) was -33%; that for CTGCATTTGCAAATAA (sugars k3 d10 k3, PS) was -21%.
Regarding CTGCGAAGCGCGCGCG (sugars k3 d10 k3, PS), the target mRNA inhibition (MM.1R, 1 µM) was -6%.
As for CTGCTCACTAAGCTTG (sugars k3 d10 k3, PS), the target mRNA inhibition runs as follows: (SK-MEL-28, 0.185 µM) 6% and 5% and -1%; (SK-MEL-28, 4 µM) 73%; (SK-MEL-28, 15 µM) 78% and 80% and 94%.
In the case of CTGCTGCCCAATACAT (sugars k3 d10 k3, PS), the target mRNA inhibition (SK-MEL-28, 4 µM) is 47%.
As to “CTGCTTGAGGTTTTCC (sugars e1 k2 d9 k2 e2, PS)”, the target mRNA inhibition by setting is: (MM.1R, 0.074 µM) 6%; (MM.1R, 0.222 µM) 21%; (MM.1R, 0.666 µM) 38%; (MM.1R, 1 µM) 52%; (MM.1R, 2 µM) 60%.

(Values after the OligoGym collection.)
